“And” between values parts separate entries of the source, which are not always exact repeats. Equal values may be shown once.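 Grown in 96-well plates, cells were treated for 48 hours with each compound at five concentrations. Insufficient inhibition: endpoint recorded as highest concentration tested. Here, GI50 denotes the concentration required for 50% inhibition of growth. TGI denotes the concentration required for complete inhibition of growth.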
What was measured:
Assay in all cases: NCI anticancer screen, dose series, 48 h
[1] = system: COLO 205 colon
[2] = system: SF-268 CNS
[3] = system: SK-OV-3 ovarian
[4] = system: SF-295 CNS
[5] = system: SNB-19 CNS
[6] = system: EKVX NSCLC
[7] = system: RXF 393 renal
[8] = system: MDA-MB-435
[9] = system: SW-620 colon
[10] = system: A498 renal

| Structure (SMILES) | GI50 [1] | TGI [1] | GI50 [2] | TGI [2] | GI50 [3] | TGI [3] | GI50 [4] | TGI [4] | GI50 [5] | TGI [5] | GI50 [6] | TGI [6] | GI50 [7] | TGI [7] | GI50 [8] | TGI [8] | GI50 [9] | TGI [9] | GI50 [10] | TGI [10] |
| --- | --- | --- | --- | --- | --- | --- | --- | --- | --- | --- | --- | --- | --- | --- | --- | --- | --- | --- | --- | --- |
| OCc1ccc(-c2csc(-c3ccc(CO)o3)c2)o1 | 4.36 µM | > 56 µM | 71.9 µM | > 100 µM | 26.1 µM | > 100 µM | 13.9 µM | > 100 µM | > 76.4 µM | > 100 µM | 21.3 µM | > 89.6 µM | > 79.7 µM | > 100 µM | 24.1 µM | > 100 µM | 35.9 µM | > 100 µM | 0.018 µM | 0.0719 µM |
| Fc1cc(F)c(F)c(S)c1F |  | > 100 µM |  | > 100 µM |  | > 100 µM |  | > 100 µM |  | > 100 µM |  | 55.2 µM |  | 54.8 µM |  | > 100 µM |  | > 100 µM |  | 33.2 µM |
| O=C(Cn1c(C(=O)c2ccc(Cl)cc2)nc(-c2ccc(Cl)cc2)c1-c1ccc(Cl)cc1)c1ccccc1 | > 100 µM | > 100 µM | > 100 µM | > 100 µM | > 100 µM | > 100 µM | > 100 µM | > 100 µM | > 100 µM | > 100 µM | > 100 µM | > 100 µM | > 100 µM | > 100 µM | > 100 µM | > 100 µM | > 100 µM | > 100 µM | > 100 µM | > 100 µM |
| COc1ccc(/C=C/C(=O)c2c(O)ccc3c(C)c(C(=O)O)oc23)cc1 | 63.4 µM | > 100 µM | 42.3 µM | > 100 µM | > 100 µM | > 100 µM | 35.1 µM | > 100 µM | 64.9 µM | > 100 µM | > 100 µM | > 100 µM | 55.5 µM | > 100 µM | 50.5 µM | > 100 µM | 56.3 µM | > 100 µM | 14.9 µM | 67.7 µM |
| O=C(CCCn1c2c(sc3ccccc32)c(=O)n2nnc(-c3ccccc3)c12)NCCc1cnc[nH]1 | 0.299 µM | 2.35 µM | 1.8 µM | 4.35 µM | 2 µM | 6.04 µM | 0.456 µM | 2.11 µM | 2.97 µM | 14.7 µM | 3.52 µM | 18.6 µM | 2.56 µM | 5.25 µM | 0.345 µM | 1.87 µM | 0.0245 µM | 0.362 µM | 1.41 µM | 2.85 µM |
| O=C(/C=C/C12c3ccccc3C(c3ccccc31)C1C(=O)N(c3ccc(Cl)cc3)C(=O)C12)c1ccccn1 (stereo not given) | 0.49 µM | 1.13 µM | 0.672 µM | > 28.8 µM | 1.98 µM | > 100 µM | 0.379 µM | 2.03 µM | 0.426 µM | 2 µM | 0.381 µM | 2.38 µM | 0.187 µM | 0.448 µM | 0.301 µM | 0.981 µM | 0.3 µM | 0.994 µM | 0.277 µM | 0.792 µM |
| CC(c1cc(Cl)ccc1O)c1cc(Cl)ccc1O | 17.6 µM | 33.5 µM | 4.33 µM | 16.9 µM | 13.4 µM | 26.4 µM | 2.3 µM | 7.83 µM | 8.13 µM | 22.4 µM | 2.98 µM | 13.4 µM | 3.42 µM | 9.7 µM | 2.32 µM | 7.25 µM | 3.7 µM | 13.3 µM | 8.4 µM | 20.8 µM |
| O=C(O)CCCCn1ccc(=O)[nH]c1=O |  | > 100 µM |  | > 100 µM |  | > 100 µM |  | > 100 µM |  | > 100 µM |  | > 100 µM |  | > 100 µM |  | > 100 µM |  | > 100 µM |  | > 100 µM |
| N#Cc1c(NCc2ccccc2)nc(NCc2ccccc2)c(C#N)c1-c1ccc(Cl)cc1 | > 50 µM and 76 µM | > 100 µM | > 50 µM and 25.4 µM | > 50 µM and 80 µM | > 100 µM | > 100 µM | > 50 µM and 36 µM | > 100 µM | > 50 µM and 40.9 µM | > 100 µM | 50.8 µM | > 100 µM | 65.5 µM | > 100 µM | > 50 µM and 43.6 µM | > 100 µM | > 50 µM and 44.1 µM | > 100 µM | > 50 µM and 33 µM | > 50 µM and 89.7 µM |
| C/C(CCC(=O)O)=N/Nc1ccc([N+](=O)[O-])cc1 | 3.43 µM | > 100 µM | 29 µM | > 100 µM | > 100 µM | > 100 µM | 2.36 µM | > 100 µM | > 100 µM | > 100 µM | 28.5 µM | > 100 µM | > 100 µM | > 100 µM | 4.37 µM | > 100 µM | 2.6 µM | > 100 µM | > 100 µM | > 100 µM |
| Cc1cc(Cl)nc2ccc(Cc3ccc4nc(Cl)cc(C)c4c3)cc12 |  | > 100 µM |  | > 100 µM |  | 47.1 µM |  | > 100 µM |  | > 100 µM |  | > 100 µM |  | 27.6 µM |  | > 100 µM |  | > 100 µM |  | 69.1 µM |
| Cc1ccc(C)c2c1C(=O)N(c1ccc(F)cc1F)C2=O | > 100 µM | > 100 µM | > 100 µM | > 100 µM | > 100 µM | > 100 µM | > 100 µM | > 100 µM | > 100 µM | > 100 µM | > 100 µM | > 100 µM | > 100 µM | > 100 µM | > 100 µM | > 100 µM | > 100 µM | > 100 µM | > 100 µM | > 100 µM |
| COC(=O)c1ccc2nc(-c3cc4ccccc4n3C)n(CCCCOc3cc4c(cc3OC)C(=O)N3CCC[C@H]3C=N4)c2c1 | 0.575 µM | 1.46 µM | 0.29 µM | 0.925 µM | 1.86 µM | 4.67 µM | 0.667 µM | 4.85 µM | 2.15 µM | 7.07 µM | 2.41 µM | 6.46 µM | 0.687 µM | 2.27 µM | 0.677 µM | 1.77 µM | 0.389 µM | 1.75 µM | 0.374 µM | 1.73 µM |
| CCN1CCC(CC(=O)Nc2n[nH]c3nnc(-c4cccc(F)c4F)cc23)CC1 | 22.3 µM | > 25 µM | > 25 µM | > 25 µM | > 25 µM | > 25 µM | 18 µM | > 25 µM | > 25 µM | > 25 µM | > 25 µM | > 25 µM | 5.56 µM | > 25 µM | > 25 µM | > 25 µM | > 25 µM | > 25 µM | 2.84 µM | > 25 µM |
| CCCCCCC1N=C(N)N=C(N)N1c1cccc(Cl)c1 (stereo not given) | 1.44 µM | 18.4 µM | 0.0591 µM | 11.5 µM | 1.22 µM | 20.9 µM | 0.102 µM | 1.71 µM | 0.255 µM | 8.58 µM | 0.307 µM | 19.3 µM | 3.44 µM | 15.7 µM | 0.0479 µM | 13.2 µM | 0.188 µM | 15.9 µM | 2.67 µM | 15.6 µM |
| CN1CCN(Cc2ccc(NC(=O)c3cncc(C#Cc4c(N)ncc5ccc(C#N)cc45)c3)cc2C(F)(F)F)CC1 | 0.121 µM | 50 µM | 0.91 µM | 1.89 µM | 8.27 µM | 17.5 µM | 8.67 µM | 18 µM | 0.952 µM | 1.79 µM | 0.791 µM | 1.57 µM | 1.08 µM | 2.88 µM | 0.333 µM | 1.07 µM | 0.696 µM | 1.53 µM | 1.07 µM | 6.35 µM |
| COc1cc2c3c(n(CCCN4CCNCC4)c(=O)c2cc1OC)-c1cc2c(cc1C3=O)OCO2 | 3.06 µM | 14 µM | 0.795 µM | 8.49 µM | 3.35 µM | 24.8 µM | 0.0851 µM | 1.93 µM | 0.835 µM | 12.4 µM | 8.51 µM | 17.2 µM | 0.811 µM | 4.89 µM | 3.27 µM | 11.3 µM | 0.0613 µM | 6.32 µM | 0.281 µM | 4.44 µM |
| CC1CCCC(C(=O)CC2CC(=O)NC(=O)C2)C1=O (stereo not given) |  | > 100 µM |  | > 100 µM |  | > 100 µM |  | > 100 µM |  | > 100 µM |  | > 100 µM |  | > 100 µM |  | > 100 µM |  | > 100 µM |  | > 100 µM |
